Measured values published in PubChem BioAssay AID292 (DTP/NCI, 2004).
Several values for one entry are separate records, joined by “and”; a condition that tells them apart may be missing. Identical values can stand only once. Inconclusive results and toxic doses are left out.

System: B6C3F1 mice, ip Sarcoma M5076, median survival T/C
Test: NCI In Vivo Anticancer Drug Screen. Data for tumor model Sarcoma M5076 (intraperitoneal) in B6C3F1 mice
Conditions: endpoint: median survival time, schedule: Q04DX004 (ip), higher = longer survival
Description: The antitumor activity of compounds was measured in mice bearing transplantable tumors. Survival or tumor size were measured and the results are expressed as the measurement made in the treated group (T) divided by the measurement made in the vehicle treated control group (C). The tumor model used in this assay is Sarcoma M5076 (intraperitoneal) in B6C3F1 mice

[1] = dose: 25.0 mg/kg/injection, vehicle: Klucel (hydroxypropylcellulose) (HPC)
[2] = dose: 50.0 mg/kg/injection, vehicle: Klucel (hydroxypropylcellulose) (HPC)
[3] = dose: 100.0 mg/kg/injection, vehicle: Klucel (hydroxypropylcellulose) (HPC)
[4] = dose: 200.0 mg/kg/injection, vehicle: Klucel (hydroxypropylcellulose) (HPC)
[5] = dose: 400.0 mg/kg/injection, vehicle: Klucel (hydroxypropylcellulose) (HPC)
[6] = dose: 50.0 mg/kg/injection, vehicle: saline with Tween-80
[7] = dose: 100.0 mg/kg/injection, vehicle: saline with Tween-80
[8] = dose: 200.0 mg/kg/injection, vehicle: saline with Tween-80
[9] = dose: 400.0 mg/kg/injection, vehicle: saline with Tween-80
[10] = dose: 800.0 mg/kg/injection, vehicle: saline with Tween-80
[11] = dose: 37.5 mg/kg/injection, vehicle: saline with Tween-80
[12] = dose: 50.0 mg/kg/injection, vehicle: saline
[13] = dose: 200.0 mg/kg/injection, vehicle: saline

In the case of `COc1cccc2c1[C@H]1CO[C@H]3C4C[C@H](C(=O)O)C([C@@H](C2)N13)N4C` (stereo partly specified), the T/C (dose: 0.62 mg/kg/injection, vehicle: water) is reported as 98 % of control, the T/C (dose: 1.25 mg/kg/injection, vehicle: water) is reported as 100 % of control and the T/C (dose: 2.5 mg/kg/injection, vehicle: water) is reported as 102 % of control. The T/C (dose: 5.0 mg/kg/injection, vehicle: water) was 109 % of control and the T/C (dose: 10.0 mg/kg/injection, vehicle: water) was 118 % of control.

For `O=C1CN(CO)C(=O)N1CO`, the T/C [1] was 100 % of control, the T/C [2] was 104 % of control and the T/C [3] was 97 % of control. For the same compound, the T/C [4] was 114 % of control and the T/C [5] was 114 % of control.

`COc1ccc([N+](=O)[O-])cc1NC(=O)C1C(=O)C(=O)N(c2cc([N+](=O)[O-])ccc2OC)C1=O` (stereo unspecified) was tested, and the T/C [2] was 100 % of control, the T/C [3] was 107 % of control and the T/C [4] was 100 % of control.

With `CCNc1nc(NC(C)C)nc(-c2ccncc2)n1` the T/C [1] was 93 % of control, the T/C [2] was 95 % of control and the T/C [3] was 95 % of control. For the same compound, the T/C [4] was 95 % of control.

`CN1C2C=CC(=O)C1C1C(=O)N(c3ccccc3)C(=O)C12` (stereo unspecified) was tested, and the T/C [2] was 102 % of control, the T/C [3] was 96 % of control and the T/C [4] was 118 % of control.

With `CN(C)[C@@H]1C(=O)C(C(=O)NCN2CCN(C(=N)N=C(N)N)CC2)=C(O)[C@@]2(O)C(=O)C3=C(O)c4c(O)cccc4[C@@](C)(O)[C@H]3C[C@@H]12` the T/C (dose: 0.31 mg/kg/injection, vehicle: saline) was 105 % of control, the T/C (dose: 0.62 mg/kg/injection, vehicle: saline) was 102 % of control and the T/C (dose: 1.25 mg/kg/injection, vehicle: saline) was 102 % of control. The T/C (dose: 1.8 mg/kg/injection, vehicle: suspension in saline) was 94 % of control, the T/C (dose: 2.5 mg/kg/injection, vehicle: saline) was 95 % of control and the T/C (dose: 3.0 mg/kg/injection, vehicle: suspension in saline) was 90 % of control. For the same compound, the T/C (dose: 5.0 mg/kg/injection, vehicle: saline) was 106 % of control, the T/C (dose: 5.0 mg/kg/injection, vehicle: suspension in saline) was 93 % of control and the T/C (dose: 8.33 mg/kg/injection, vehicle: suspension in saline) was 91 % of control. For the same compound, the T/C (dose: 13.88 mg/kg/injection, vehicle: suspension in saline) was 94 % of control.

In the case of `Cc1nc2cc[nH]n2c(=O)c1CCc1ccccc1`, the T/C [6] is reported as 107 % of control, the T/C [7] is reported as 94 % of control and the T/C [8] is reported as 96 % of control.

`O=C(O)c1nn(-c2ccccc2-c2n[nH]c(=O)[nH]c2=O)c(=O)[nH]c1=O` was tested, and the T/C [6] was 101 % of control, the T/C [7] was 100 % of control and the T/C [8] was 92 % of control.

`COc1cccc2c1C(=O)C1=C(C2=O)c2c(O)cc(CO)cc2C(O)C1O` (stereo unspecified) was tested, and the T/C (dose: 6.25 mg/kg/injection, vehicle: saline with Tween-80) was 100 % of control, the T/C (dose: 12.5 mg/kg/injection, vehicle: saline with Tween-80) was 106 % of control and the T/C (dose: 25.0 mg/kg/injection, vehicle: saline with Tween-80) was 92 % of control. The T/C [6] was 101 % of control.

`CCOC(=O)CC1(C)SCCN1C(=O)OCC` (stereo unspecified) was tested, and the T/C [6] was 114 % of control, the T/C [7] was 114 % of control and the T/C [8] was 122 % of control. For the same compound, the T/C [9] was 103 % of control and the T/C [10] was 98 % of control.

`CCOC(=O)Cn1nc2oc(=O)c(CCN3CCN(c4ccccc4OC)CC3)c(C)c2c1C` was tested, and the T/C [2] was 103 % of control, the T/C [3] was 103 % of control and the T/C [4] was 90 % of control. For the same compound, the T/C [5] was 94 % of control and the T/C (dose: 800.0 mg/kg/injection, vehicle: Klucel (hydroxypropylcellulose) (HPC)) was 89 % of control.

`Cc1cc(Br)c2nsnc2c1[N+](=O)[O-]` was tested, and the T/C [6] was 96 % of control, the T/C [7] was 112 % of control and the T/C [8] was 104 % of control. The T/C [9] was 103 % of control and the T/C [10] was 87 % of control.

In the case of `COc1cc([C@@H]2c3cc4c(cc3[C@H](O)[C@H]3COC(=O)[C@H]23)OCO4)cc(OC)c1OC`, the T/C (dose: 2.0 mg/kg/injection, vehicle: saline with Tween-80) is reported as 117 % of control, the T/C (dose: 5.8 mg/kg/injection, vehicle: saline with Tween-80) is reported as 117 % of control and the T/C (dose: 15.98 mg/kg/injection, vehicle: saline with Tween-80) is reported as 154 % of control. The T/C (dose: 44.4 mg/kg/injection, vehicle: saline with Tween-80) was 151 % of control.

`O=C(CSc1nnc(-c2ccc(Cl)cc2)s1)Nc1nccs1` was tested, and the T/C (dose: 5.0 mg/kg/injection, vehicle: saline with Tween-80) was 101 % of control, the T/C (dose: 10.0 mg/kg/injection, vehicle: saline with Tween-80) was 95 % of control and the T/C (dose: 20.0 mg/kg/injection, vehicle: saline with Tween-80) was 93 % of control. For the same compound, the T/C [11] was 90 % of control, the T/C (dose: 40.0 mg/kg/injection, vehicle: saline with Tween-80) was 88 % of control and the T/C (dose: 80.0 mg/kg/injection, vehicle: saline with Tween-80) was 88 % of control.

For `[Na+]`, the T/C (dose: 50.0 mg/kg/injection, vehicle: water) was 94 % of control, the T/C (dose: 100.0 mg/kg/injection, vehicle: water) was 97 % of control and the T/C (dose: 200.0 mg/kg/injection, vehicle: water) was 101 % of control. For the same compound, the T/C (dose: 400.0 mg/kg/injection, vehicle: water) was 88 % of control and the T/C (dose: 800.0 mg/kg/injection, vehicle: water) was 98 % of control.

`CCN(CC)CCCC(C)Nc1c2ccc(Cl)cc2nc2ccc(OC)cc12` (stereo unspecified) was tested, and the T/C (dose: 25.0 mg/kg/injection, vehicle: saline) was 111 % of control, the T/C [12] was 115 % of control and the T/C (dose: 100.0 mg/kg/injection, vehicle: saline) was 112 % of control. The T/C [13] was 91 % of control.

`O=[n+]1c2c(n([O-])c3cc(Cl)c(Cl)cc31)CCCC2` was tested, and the T/C (dose: 18.75 mg/kg/injection, vehicle: saline with Tween-80) was 99 % of control, the T/C [11] was 97 % of control and the T/C (dose: 75.0 mg/kg/injection, vehicle: saline with Tween-80) was 100 % of control. The T/C (dose: 150.0 mg/kg/injection, vehicle: saline with Tween-80) was 97 % of control and the T/C (dose: 300.0 mg/kg/injection, vehicle: saline with Tween-80) was 95 % of control.

In the case of `C1OC1CO[C@@H]1CO[C@H]2[C@@H]1OC[C@H]2OCC1CO1` (stereo partly specified), the T/C [12] is reported as 119 % of control, the T/C (dose: 50.0 mg/kg/injection, vehicle: suspension in saline) is reported as 119 % of control and the T/C (dose: 100.0 mg/kg/injection, vehicle: suspension in saline) is reported as 150 % of control. For the same compound, the T/C [13] was 186 % of control, the T/C (dose: 200.0 mg/kg/injection, vehicle: suspension in saline) was 215 % of control and the T/C (dose: 400.0 mg/kg/injection, vehicle: saline) was 183 % of control. The T/C (dose: 400.0 mg/kg/injection, vehicle: suspension in saline) was 239 % of control.

For `O=[n+]1c2c(n([O-])c3ccccc31)CCC2`, the T/C (dose: 21.9 mg/kg/injection, vehicle: saline with Tween-80) was 103 % of control, the T/C (dose: 43.75 mg/kg/injection, vehicle: saline with Tween-80) was 102 % of control and the T/C (dose: 87.5 mg/kg/injection, vehicle: saline with Tween-80) was 104 % of control. The T/C (dose: 175.0 mg/kg/injection, vehicle: saline with Tween-80) was 107 % of control and 108 % of control and the T/C (dose: 350.0 mg/kg/injection, vehicle: saline with Tween-80) was 109 % of control and 110 % of control.
